Laboratory results as given in ChEMBL document CHEMBL1132906, “Squalamine analogues as potential anti-trypanosomal and anti-leishmanial compounds” (2000).
Several values for one entry are separate records, joined by “and”; a condition that tells them apart may be missing. Equal values may be shown once. Activity calls are given as the source filed them. No cut-off for these calls is given here.

Tests used:
Trypanosoma cruzi [1] = experiment: The compound was evaluated for its inhibitory activity against Trypanosoma cruzi (toxic effect on macrophages); type: functional; conditions: read-out: ED50 (the source's name)
Leishmania donovani = experiment: The compound was evaluated for its inhibitory activity against Leishmania donovani; type: functional; conditions: read-out: ED50 (the source's name)
[2] = The compound was evaluated for its toxicity against KB cells; type: functional; conditions: Homo sapiens, read-out: ED50 (the source's name)
Trypanosoma brucei [3] = experiment: The compound was evaluated for its inhibitory activity against Trypanosoma brucei (indicate results of two experiments); type: functional; conditions: read-out: ED50 (the source's name)
Trypanosoma cruzi [4] = experiment: The compound was evaluated for its inhibitory activity against Trypanosoma cruzi; type: functional; conditions: read-out: ED50 (the source's name)
Trypanosoma brucei [5] = experiment: The compound was evaluated for its inhibitory activity against Trypanosoma brucei; type: functional; conditions: read-out: ED50 (the source's name)
Trypanosoma brucei [6] = experiment: The compound was evaluated for the inhibition of Trypanosoma brucei at 1 (ug/ml).; type: functional
Mus musculus [7] = experiment: Percent reduction (in vivo) against mice infected with Leishmania donovani after intraperitoneal administration of compound (50 mg/kg for 5 days); type: functional
Mus musculus [8] = experiment: Inhibitory activity (in vivo) against mice infected with Trypanosoma rhodesiense after intraperitoneal administration of compound (50 mg/kg for 4 days); No effect; type: functional, organism-based

Compound: CC(C(=O)NCCCN(CCCCNC(=O)OC(C)(C)C)C(=O)OC(C)(C)C)[C@H]1CCC2C3CC=C4C[C@@H](OS(=O)(=O)O)CC[C@]4(C)C3CC[C@@]21C (stereo partly drawn)
- EC50 (Trypanosoma cruzi [1]): > 36 µM
- EC50 (Leishmania donovani): 4.9 µM
- EC50 [2]: > 360 µM
- EC50 (Trypanosoma brucei [3]): > 36000 nM

Compound: CC(=O)O[C@H]1CC[C@@]2(C)C(=CCC3C2CC[C@@]2(C)C3CC[C@@H]2C(C)C(=O)NCCCN(CCCCNC(=O)OC(C)(C)C)C(=O)OC(C)(C)C)C1 (stereo partly drawn)
- EC50 (Trypanosoma cruzi [4]): > 42 µM
- EC50 (Leishmania donovani): 17.3 µM
- EC50 [2]: 111 µM
- EC50 (Trypanosoma brucei [3]): 2600 nM

Compound: CC(=O)O[C@H]1CC[C@@]2(C)C(=CCC3C2CC[C@@]2(C)C3CC[C@@H]2C(C)C(=O)NCCCN(CCCCN(CCCNC(=O)OC(C)(C)C)C(=O)OC(C)(C)C)C(=O)OC(C)(C)C)C1 (stereo partly drawn)
- EC50 (Trypanosoma cruzi [4]): > 34 µM
- EC50 (Leishmania donovani): 4.7 µM
- EC50 [2]: 31 µM
- EC50 (Trypanosoma brucei [5]; Trypanosoma brucei): 1100 nM
- EC50 (Trypanosoma brucei [5]): 570 nM

Compound: O=C(Cn1ccnc1[N+](=O)[O-])NCc1ccccc1 [BENZNIDAZOLE]
- EC50 (Trypanosoma cruzi [4]): 7.45 µg/mL

Compound: CC(C(=O)NCCCN(CCCCN(CCCNC(=O)OC(C)(C)C)C(=O)OC(C)(C)C)C(=O)OC(C)(C)C)[C@H]1CCC2C3CC=C4C[C@@H](O)CC[C@]4(C)C3CC[C@@]21C (stereo partly drawn)
- EC50 (Trypanosoma cruzi [4]): > 36 µM
- EC50 (Leishmania donovani): 12.6 µM
- EC50 [2]: 27 µM
- EC50 (Trypanosoma brucei [3]): 600 nM

Compound: CC(C(=O)NCCCN(CCCCNC(=O)OC(C)(C)C)C(=O)OC(C)(C)C)[C@H]1CCC2C3CC=C4C[C@@H](O)CC[C@]4(C)C3CC[C@@]21C (stereo partly drawn)
- EC50 (Trypanosoma cruzi [1]): > 15 µM
- EC50 (Leishmania donovani): 25.7 µM
- EC50 [2]: 65 µM
- EC50 (Trypanosoma brucei [5]): 4700 nM and 1500 nM

Compound: N=C(N)c1ccc(OCCCCCOc2ccc(C(=N)N)cc2)cc1 [PENTAMIDINE]
- Inhibition (Trypanosoma brucei [6]): 100%

Compound: CC(C(=O)NCCCNCCCCN)[C@H]1CCC2C3CC=C4C[C@@H](O)CC[C@]4(C)C3CC[C@@]21C (stereo partly drawn)
- EC50 (Trypanosoma cruzi [1]): > 63 µM
- EC50 (Leishmania donovani): 44.7 µM
- EC50 [2]: 3.3 µM
- EC50 (Trypanosoma brucei [5]): 1900 nM and 630 nM

Compound: CC(C(=O)NCCCNCCCCN)[C@H]1CCC2C3CC=C4C[C@@H](OS(=O)(=O)O)CC[C@]4(C)C3CC[C@@]21C (stereo partly drawn)
- EC50 (Trypanosoma cruzi [4]): 13.5 µM
- EC50 (Leishmania donovani): 39.9 µM
- EC50 [2]: > 526 µM
- EC50 (Trypanosoma brucei [3]): > 53000 nM

Compound: CC(C(=O)NCCCNCCCCNCCCN)[C@H]1CCC2C3CC=C4C[C@@H](O)CC[C@]4(C)C3CC[C@@]21C (stereo partly drawn)
- EC50 (Trypanosoma cruzi [1]): > 57 µM
- Reduction (Mus musculus [7]): 16%
- EC50 (Leishmania donovani): 5 µM
- EC50 [2]: 15 µM
- Activity (Mus musculus [8]): inactive
- EC50 (Trypanosoma brucei [5]; Trypanosoma brucei): 560 nM
- EC50 (Trypanosoma brucei [5]): 1100 nM
